Measured values: patent US11827628B2, “Compositions and methods for inhibition of the JAK pathway” (Rigel Pharmaceuticals, Inc., priority 2005, dated 2023)

What follows are compounds tested on Primary human T-cells (assay: Primary Human T-Cell Proliferation Assay Stimulated with IL-2 (CellTiter-Glo)). Settings: Homo sapiens, T-cell, primary human T-cell proliferation stimulated with IL-2; read-out: IC50, Example 42.
Format: cell-based
Summary of the method: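 IC50 derived from CellTiter-Glo ATP signal after 72 hours of IL-2-driven proliferation at 37° C. Cells: primary human T-cells from blood, stimulated beforehand 3-4 days on anti-CD3/anti-CD28 with IL-2, then rested from IL-2 before compound exposure in duplicate; IL-2-free wells served as unstimulated control.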
In the case of Cc1nnc(COc2ccc(Nc3nc(Nc4ccc(C)c(S(N)(=O)=O)c4)ncc3F)cc2)o1 [Compound I-279, N2-(3-Aminosulfonyl-4-methylphenyl)-5-fluoro-N4-[4-(5-methyl-1,3,4-oxadiazol-2-yl)methoxyphenyl]-2,4-pyrimidinediamine], the IC50 is reported as 167 nM.
CNC(=O)COc1ccc(Nc2nc(Nc3cccc(S(N)(=O)=O)c3)ncc2C)cc1F [Compound I-155, N2-(3-Aminosulfonylphenyl)-N4-(3-fluoro-4-methylaminocarbonylmethoxyphenyl)-5-methyl-2,4-pyrimidinediamine] was tested, and the IC50 was 99.3 nM.
For Cc1ccc(Nc2ncc(F)c(Nc3ccc(Cc4ccncc4)cc3)n2)cc1S(N)(=O)=O [III-74, N2-(3-Aminosulfonyl-4-methylphenyl)-5-fluoro-N4-[4-(4-pyridinylmethyl)phenyl]-2,4-pyrimidinediamine], the IC50 was 175 nM.
Cc1cnc(Nc2ccc(S(N)(=O)=O)cc2)nc1Nc1ccc(OCC(N)=O)cc1 [Compound I-108, N4-(4-Aminocarbonylmethoxyphenyl)-N2-(4-aminosulfonylphenyl)-5-methyl-2,4-pyrimidinediamine] gave an IC50 of 148 nM.
In the case of Cc1ccc(Nc2ncc(F)c(NCCc3ccc(-n4ccnc4)cc3)n2)cc1S(N)(=O)=O [III-88, N2-(3-Aminosulfonyl-4-methylphenyl)-5-fluoro-N4-[4-(1-imidazolyl)phenethyl]-2,4-pyrimidinediamine], the IC50 is reported as 166 nM.
For CN(C)C(=O)COc1ccc(Nc2nc(Nc3cccc(S(N)(=O)=O)c3)ncc2F)cc1Cl [Compound I-132, N2-(3-Aminosulfonylphenyl)-N4-(3-chloro-4-dimethylaminocarbonylmethoxyphenyl)-5-fluoro-2,4-pyrimidinediamine], the IC50 was 464 nM.
Compound COc1cc(Nc2nc(Nc3cccc(S(N)(=O)=O)c3)ncc2F)ccc1OCC#N [Compound I-46, N2-(3-Aminosulfonylphenyl)-N4-(4-cyanomethoxy-3-methoxyphenyl)-5-fluoro-2,4-pyrimidinediamine] has an IC50 of 409 nM.
For NS(=O)(=O)c1cccc(Nc2ncc(F)c(NCCc3ccc(-n4ccnc4)cc3)n2)c1 [III-87, N2-(3-Aminosulfonylphenyl)-5-fluoro-N4-[4-(1-imidazolyl)phenethyl]-2,4-pyrimidinediamine], the IC50 was 142 nM.
Compound Cc1ccc(Nc2ncc(F)c(Nc3ccc(OC4CCN(C)CC4)cc3)n2)cc1S(N)(=O)=O [II-7, N2-(3-Aminosulfonyl-4-methylphenyl)-5-fluoro-N4-{4-[(1-methylpiperidin-4-yl)oxy]phenyl}-2,4-pyrimidinediamine] has an IC50 of 522 nM.
For Cc1ccc(Nc2ncc(C)c(Nc3ccc(OCC(=O)N(C)C)c(Cl)c3)n2)cc1S(N)(=O)=O [Compound I-136, N2-(3-Aminosulfonyl-4-methylphenyl)-N4-(3-chloro-4-dimethylaminocarbonylmethoxyphenyl)-5-methyl-2,4-pyrimidinediamine], the IC50 was 196 nM.
NC(=O)OCCc1ccc(Nc2nc(Nc3cccc(S(N)(=O)=O)c3)ncc2F)cc1 [III-54, N4-{4-[2-(Aminocarbonyloxy)ethyl]phenyl}-N2-(3-aminosulfonylphenyl)-5-fluoro-2,4-pyrimidinediamine] was tested, and the IC50 was 140 nM.
Compound Cc1ccc(Nc2ncc(F)c(Nc3ccc(CCC#N)c(Cl)c3)n2)cc1S(N)(=O)=O [III-21, N2-(3-Aminosulfonyl-4-methylphenyl)-N4-[3-chloro-4-(2-cyanoethyl)phenyl]-5-fluoro-2,4-pyrimidinediamine] has an IC50 of 114 nM.
Cc1ccc(Nc2nc(Nc3cccc(S(N)(=O)=O)c3)ncc2F)cc1OCCN1CCOCC1 [Compound I-203, N2-(3-Aminosulfonylphenyl)-5-fluoro-N4-[4-methyl-3-(2-morpholinoethyloxy)phenyl]-2,4-pyrimidinediamine] was tested, and the IC50 was 684 nM.
CN(C)C(=O)OCCc1ccc(Nc2nc(Nc3cccc(S(N)(=O)=O)c3)ncc2F)cc1 [III-57, N2-(3-Aminosulfonylphenyl)-N4-{4-[2-(dimethylaminocarbonyloxy)ethyl]phenyl}-5-fluoro-2,4-pyrimidinediamine] was tested, and the IC50 was 170 nM.
Cc1cnc(Nc2cccc(S(N)(=O)=O)c2)nc1Nc1ccc(OCC#N)cc1 [Compound I-58, N2-(3-Aminosulfonylphenyl)-N4-(4-cyanomethoxyphenyl)-5-methyl-2,4-pyrimidinediamine] was tested, and the IC50 was 19.2 nM.
Work on Cc1ccc(Nc2ncc(F)c(Nc3ccc(OCC(N)=O)c(F)c3)n2)cc1S(N)(=O)=O [Compound I-102, N4-(4-Aminocarbonylmethoxy-3-fluorophenyl)-N2-(3-aminosulfonyl-4-methylphenyl)-5-fluoro-2,4-pyrimidinediamine] yielded an IC50 of 211 nM.
In the case of NC(=O)COc1ccc(Nc2nc(Nc3ccc(S(N)(=O)=O)cc3)ncc2F)cc1Cl [Compound I-97, N4-(4-Aminocarbonylmethoxy-3-chlorophenyl)-N2-(4-aminosulfonylphenyl)-5-fluoro-2,4-pyrimidinediamine], the IC50 is reported as 869 nM.
Compound N#CCOc1ccc(Nc2nc(Nc3ccc(S(N)(=O)=O)cc3)ncc2F)cc1F [Compound I-44, N2-(4-Aminosulfonylphenyl)-N4-(4-cyanomethoxy-3-fluorophenyl)-5-fluoro-2,4-pyrimidinediamine] has an IC50 of 342 nM.
COc1cc(Nc2nc(Nc3ccc(S(N)(=O)=O)cc3)ncc2F)ccc1OCC#N [Compound I-45, N2-(4-Aminosulfonylphenyl)-N4-(4-cyanomethoxy-3-methoxyphenyl)-5-fluoro-2,4-pyrimidinediamine] gave an IC50 of 834 nM.
For Cc1ccc(Nc2ncc(F)c(Nc3ccc(CCOC(N)=O)cc3)n2)cc1S(N)(=O)=O [III-53, N4-{4-[2-(Aminocarbonyloxy)ethyl]phenyl}-N2-(3-aminosulfonyl-4-methylphenyl)-5-fluoro-2,4-pyrimidinediamine], the IC50 was 286 nM.
NS(=O)(=O)c1cccc(Nc2ncc(F)c(NCCc3ccc(-c4ccncc4)cc3)n2)c1 [III-76, N2-(3-Aminosulfonylphenyl)-5-fluoro-N4-[4-(4-pyridinyl)phenethyl]-2,4-pyrimidinediamine] was tested, and the IC50 was 135 nM.
Cc1ccc(Nc2ncc(F)c(Nc3ccc(OCC(N)=O)c(Cl)c3)n2)cc1S(N)(=O)=O [Compound I-99, N4-(4-Aminocarbonylmethoxy-3-chlorophenyl)-N2-(3-aminosulfonyl-4-methylphenyl)-5-fluoro-2,4-pyrimidinediamine] gave an IC50 of 148 nM.
Work on Cc1ccc(Nc2ncc(F)c(Nc3cccc(OC4CCN(C)CC4)c3)n2)cc1S(N)(=O)=O [II-2, N2-(3-Aminosulfonyl-4-methylphenyl)-5-fluoro-N4-{3-[(1-methylpiperidin-4-yl)oxy]phenyl}-2,4-pyrimidinediamine] yielded an IC50 of 1520 nM.
Compound COc1ccc(Nc2ncc(F)c(Nc3ccc(Cc4ccncc4)cc3)n2)cc1S(N)(=O)=O [III-66, N2-(3-Aminosulfonyl-4-methoxyphenyl)-5-fluoro-N4-[4-(4-pyridinylmethyl)phenyl]-2,4-pyrimidinediamine] has an IC50 of 1150 nM.
CN(C)C(=O)COc1ccc(Nc2nc(Nc3ccc(S(N)(=O)=O)cc3)ncc2F)cc1Cl [Compound I-131, N2-(4-Aminosulfonylphenyl)-N4-(3-chloro-4-dimethylaminocarbonylmethoxyphenyl)-5-fluoro-2,4-pyrimidinediamine] was tested, and the IC50 was 3780 nM.
With COc1cc(Nc2nc(Nc3ccc(C)c(S(N)(=O)=O)c3)ncc2F)ccc1OCC#N [Compound I-47, N2-(3-Aminosulfonyl-4-methylphenyl)-N4-(4-cyanomethoxy-3-methoxyphenyl)-5-fluoro-2,4-pyrimidinediamine] the IC50 was 551 nM.
In the case of NS(=O)(=O)c1ccc(Nc2ncc(F)c(Nc3ccc(Cc4ccncc4)cc3)n2)cc1 [III-71, N2-(4-Aminosulfonylphenyl)-5-fluoro-N4-[4-(4-pyridinylmethyl)phenyl]-2,4-pyrimidinediamine], the IC50 is reported as 368 nM.
Cc1cnc(Nc2ccc(Cl)c(S(N)(=O)=O)c2)nc1Nc1ccc(OCC(=O)N(C)C)c(Cl)c1 [Compound I-141, N2-(3-Aminosulfonyl-4-chlorophenyl)-N4-(3-chloro-4-dimethylaminocarbonylmethoxyphenyl)-5-methyl-2,4-pyrimidinediamine] was tested, and the IC50 was 669 nM.
Compound Cc1cc(COc2ccc(Nc3nc(Nc4cccc(S(N)(=O)=O)c4)ncc3F)cc2)no1 [Compound I-230, N2-(3-Aminosulfonylphenyl)-5-fluoro-N4-[4-(5-methylisoxazol-3-yl)methyleneoxyphenyl]-2,4-pyrimidinediamine] has an IC50 of 69.2 nM.
For COc1cc(Nc2nc(Nc3ccc(S(N)(=O)=O)cc3)ncc2F)cc(OCC#N)c1OC [Compound I-1, N2-(4-Aminosulphonylphenyl)-N4-(3-cyanomethoxy-4,5-dimethoxyphenyl)-5-fluoro-2,4-pyrimidinediamine], the IC50 was 9890 nM.

Same assay, conditions: Homo sapiens, T-cell, primary human T-cells stimulated with IL-2, proliferation; read-out: IC50, Example 42
Compound Cc1cc(Nc2nc(Nc3ccc(S(N)(=O)=O)cc3)ncc2F)cc(C)c1N1CCN(C)CC1 [IX-44, N2-(4-Aminosulfonylphenyl)-N4-[3,5-dimethyl-4-(4-methylpiperazin-1-yl]phenyl)-5-fluoro-2,4-pyrimidinediamine] has an IC50 of 789 nM.

Same assay, conditions: primary human T-cells stimulated with IL-2, proliferation; read-out: IC50, Example 42
Compound “N4-(3,4-Dichlorophenyl)-5-fluoro-N2-[3-(4-methylpipendin-1-yl)aminosulfonylphenyl]-2,4-pyrimidinediamine [VI-10]” has an IC50 of 2400 nM.
For NS(=O)(=O)c1cccc(Nc2ncc(F)c(Nc3ccc(Cn4cncn4)cc3)n2)c1 [III-100, N2-(3-Aminosulfonylphenyl)-5-fluoro-N4-{4-[1-(1,2,4-thazolyl)methyl]phenyl}-2,4-pyrimidinediamine], the IC50 was 197 nM.
Work on CNS(=O)(=O)c1cc(Nc2ncc(F)c(Nc3ccc(-c4cnco4)cc3)n2)ccc1C [IV-7, 5-Fluoro-N2-[3-(N-methylaminosulfony)-4-methylphenyl]-N4-[4-(1,3-oxazol-5-yl)phenyl]-2,4-pyrimidinediamine] yielded an IC50 of 203 nM.
Cc1ccc(Nc2ncc(F)c(Nc3ccc(CN4CCOCC4)cc3)n2)cc1S(N)(=O)=O [III-104, N2-(3-Aminosulfonyl-4-methylphenyl)-5-fluoro-N4-(4-N-morpholinomethylenephenyl)-2,4-pyrimidinediamine] gave an IC50 of 1190 nM.
